# Source: article PMC11013662, “New Thiosemicarbazide Derivatives with Multidirectional Biological Action” (Molecules, 2024)
# Where “and” joins values, the source holds several entries; their conditions need not be identical. Equal values may be shown once.
# Key:
# [1] = test system: V79 Chinese hamster lung cells; test: MTT cytotoxicity assay; format: cell-based; conditions: Cricetulus griseus, V 79 normal cells, 72 h
# Protocol: Both lines were obtained from American Type Culture Collection (ATCC, Rockville, MD, USA). The culture used to grow the SW 620 cells was prepared in MEM (ThermoSci, Waltham, MA, USA). The V79 cells were cultured in RPMI (Biowest SAS, Nuaillé, France) with the addition of 20 mM HEPES (Biowest, Nuaillé, France), 10% fetal bovine serum (FBS, Sigma-Aldrich, St. Louis, MO, USA), 100 µg/mL of streptomycin, and 100 U/mL of penicillin (Gibco, Grand Island, NY, USA). The eligible level of cells confluence was 80–90%, and both cell cultures were maintained in a humidified incubator set at 37 °C with 5% CO2 until they reached it.
# The MTT assay was used to establish the cytotoxic activity of the studied compounds. The mechanism of this method relies on enzymatic conversion of 3-(4,5-dimethylthiazol-2-yl)-2,5-diphentyltetrazolium bromide salt (MTT) into insoluble formazan crystals by mitochondrial dehydrogenases within viable cells.
# The process starts with the preparation of 96-well plates by placing cells at a density of 1 × 10^4 per well and incubating them for 24 h to adhere. Afterwards, the cells were treated with different concentrations of thiosemicarbazide derivatives, from 20 to 100 µM, except the control group which remained not exposed. Next, cells were incubated for 72 h at 37 °C with a 5% CO2. Then, a solution of MTT (0.5 mg/mL) was added to each well and plates were incubated for 4 h more in the same conditions.
# To dissolve precipitated formazan crystals, a mixture of DMSO and isopropanol (in a 1:1 ratio, v/v) was used. For the spectrophotometric survey, we used MultiscanGo from Thermo Scientific with the wavelength value set at 570 nm to measure absorbance.
# Cell viability was determined as the percentage of MTT reduction in the treated cells compared to the control group (unexposed cells). The relative MTT level, represented as a percentage, was calculated using the formula [A]/[B] × 100, where [A] stands for the absorbance of the treated cell sample and [B] for the absorbance of unexposed to studied compounds sample (control group). […] To calculate IC50 values (concentration at which 50% of cell viability is inhibited), we used GraphPad Prism 8.0.1 software.
# [2] = test system: lipid oxidation stimulated by iron (II) ions in rat brain homogenate; test: Antioxidant activity: MDA from iron(II)-stimulated lipid oxidation in brain homogenate; format: biochemical; conditions: 10 μM compound; for MDA: 0.1% FeCl2 and 1 mM ascorbic acid, 1 h 37 °C; for Antioxidative Potential Value: reduction of MDA vs control sample
# Protocol: The antioxidant potential of the newly synthesized derivatives was assessed based on the analysis of the malondialdehyde (MDA) concentration formed as a product of lipid oxidation stimulated by iron (II) ions.
# The antioxidant activity of the tested compounds was measured in the brain homogenate of intact rats bred at the Central Laboratory of Experimental Animals of the Medical University of Warsaw. Brains were collected according to procedure no. 3R. A 10% (m/v) rat brain solution was obtained by homogenizing freshly prepared brain washed with cold 0.9% NaCl in cold 10 mM TRIS-HCl buffer, with pH = 7.5. The homogenate was centrifuged at 4 °C (2000 rpm) to obtain supernatant 1 [54, 60]. Sample preparation was as follows: 100 μM stock solutions of test compounds in DMSO were added to […] of supernatant 1 to a final concentration of 10 μM. The reference sample contained brain homogenate supernatant and DMSO.
# Freshly prepared solutions of 0.1% FeCl2 (0.2 mL) and 1 mM ascorbic acid (0.4 mL) were added to all samples to initiate the oxidation reaction. Samples were incubated for 1 h at 37 °C. Then, 8.1% sodium dodecyl sulfate (SDS) solution was added to inhibit the oxidation reaction. Acetate buffer (pH = 3.4) and 0.8% thiobarbituric acid (TBA) solution (pH = 6) were added to each sample to determine the concentration of malondialdehyde (MDA). The samples were incubated for 1 h at 100 °C, then cooled on ice and centrifuged (10 min, 4000 rpm). The absorbance was measured at a wavelength of 532 nm against a blank sample (acetate buffer with TBA solution).
# Calculation of malondialdehyde (MDA) concentration was performed as follows: MDA concetration=∆ A532 nm×1.56×10^−6 [nmol MDA/h/g tissue]
# [3] = test system: Rhabditis sp.; test: Anthelmintic activity assay on nematode culture; format: cell-based; conditions: 24 h exposure
# Protocol: All compounds in the anthelmintic activity study were prepared in the form of a homogeneous suspension. The anthelmintic activity was tested according to the procedure developed by Bogucka-Kock and Kołodziej. The tested compounds were added to the culture of Rhabditis sp. at experimentally determined concentrations. […] LC50 values (lethal concentration) were determined for two active substances. It was defined as the amount of the substance causing the death of 50% of nematodes.
SMILES,melting point,IC50 [1],MDA [2],Antioxidative Potential Value [2],LC50 [3]
"COc1cccc(NC(=S)NNC(=O)c2cccc(C(F)(F)F)c2)c1 [Compound 3b, 1-(3-Trifluoromethylbenzoyl)-4-(3-methoxyphenyl)thiosemicarbazide]",181.3 °C,> 100 µM,1.703 ± 0.177 mM × 10^−3,36.9%,–
"Cc1cccc(NC(=S)NNC(=O)c2cccc(C(F)(F)F)c2)c1 [Compound 3d, 1-(3-Trifluoromethylbenzoyl)-4-(3-methylphenyl)thiosemicarbazide]",230.7 °C,69.1 ± 5.45 µM,1.320 ± 0.143 mM × 10^−3,50.1% and 51.1%,–
"FC(F)(F)c1cccc(-c2n[nH]c(=S)n2-c2cccc(Cl)c2)c1 [Compound 4, 4-(3-Chlorophenyl)-5-(3-trifluoromethylphenyl)-2,4-dihydro-3H-1,2,4-triazole-3-thione]",–,> 100 µM,2.022 ± 0.121 mM × 10^−3,25.1%,370 µg/mL
"CCCCNC(=S)NNC(=O)c1cccc(C(F)(F)F)c1 [Compound 3c, 4-Butyl-1-(3-trifluoromethylbenzoyl)thiosemicarbazide]",161.6 °C,> 100 µM,1.773 ± 0.077 mM × 10^−3,34.3%,–
"O=C(NNC(=S)Nc1cccc(Cl)c1)c1cccc(C(F)(F)F)c1 [Compound 3a, 4-(3-Chlorophenyl)-1-(3-trifluoromethylbenzoyl)thiosemicarbazide]",–,40.5 ± 3.83 µM,1.395 ± 0.232 mM × 10^−3,48.3%,14800 µg/mL

# Continued, in another order:
melting point,SMILES,IC50 [1],MDA [2],Antioxidative Potential Value [2],LC50 [3]
174.4 °C,"O=C(NNC(=S)Nc1cccc(F)c1)c1cccc(C(F)(F)F)c1 [Compound 3e, 1-(3-Trifluoromethylbenzoyl)-4-(3-fluorophenyl)thiosemicarbazide]",> 100 µM,1.274 ± 0.121 mM × 10^−3,52.8%,–
176.4 °C,"O=C(NNC(=S)Nc1ccccc1)c1cccc(C(F)(F)F)c1 [Compound 3f, 1-(3-Trifluoromethylbenzoyl)-4-(phenyl)thiosemicarbazide]",> 100 µM,1.450 ± 0.006 mM × 10^−3,46.3%,–
